Where “and” joins values, the source holds several entries; their conditions need not be identical. Equal entries are not always repeated. Structures can show the parent of a compound that is named as a salt.
How the values were obtained:
Assay type in all cases: in vivo
db/db mice [1] = test: Antidiabetic activity with Vildagliptin and Metformin in db/db mice (study IV): non-fasting serum glucose; settings: Vildagliptin 1 mg/kg
Excerpt: The in-vivo efficacy for antidiabetic activity was done female db/db mice of 10-15 weeks of age.
(§1) 1. […] 17. The treatment was given oral gavages once daily for 14 days.
(§2) The OGTT procedure followed is as given below—

db/db mice [2] = test: Oral glucose tolerance test in db/db mice (study IV); settings: Compound Ia 0.1 mg/kg, Vildagliptin 1 mg/kg, Metformin 100 mg/kg; for % improvement in AUC glucose vs control: Table 19 and text, OGTT after 14 days of treatment
Excerpt: as §1, §2

[3] = system: high fat high cholesterol fed Syrian golden hamster; test: Lipid lowering effects with Rosuvastatin Calcium in HF-HC fructose diet Syrian golden hamsters (study III); settings: Compound (Ia) 3 mg/kg
Excerpt: (§3) The in-vivo efficacy was done in high fat high cholesterol fed Syrian golden hamster. It is an excellent model to investigate hepatic assembly and secretion of lipoprotein since its lipoprotein metabolism closely resembles that of humans as they have cholesteryl ester transfer protein (CETP) as like human. Feeding high fat high cholesterol diet to Syrian golden hamster causes hypercholesterolemia and hypertriglyceridemia which causes an increase in LDL levels and decrease in HDL-C/TC ratio.
In this experiment, 21 Syrian golden hamsters which were kept on high fat-high cholesterol (HF-HC) fructose diet were divided into 3 treatment groups and one group was on normal diet control which was NIN (National Institute of Nutrition, NIN diet) control, the treatment given was as per Table no. 1. NIN control and HF-HC fructose diet vehicle control groups were treated with vehicle (10% Polyethylene glycol (PEG) 400+90% of 0.5% methyl cellulose) and other three groups with treatment mentioned in Table no. 13. The treatment was given oral gavages once daily for 7 days.
Calculations of the % change in LDL-C levels, HDL-C and LDL-C/HDL-C ratio (Vs HF-HC fructose diet control) were performed using MS Excel.

[4] = system: high fat high cholesterol fed Syrian golden hamster; test: Lipid lowering effects with Atorvastatin in HF-HC fructose diet Syrian golden hamsters (study V)
Excerpt: as §3
In this experiment, 18 Syrian golden hamsters which were kept on high fat-high cholesterol (HF-HC) fructose diet were divided into 3 treatment groups and one group was on normal diet control which was NIN (National Institute of Nutrition, NIN diet) control, the treatment given was as per Table no. 1. […] 20. The treatment was given oral gavages once daily for 13 days.
Calculations of the % change in LDL-C levels, triglyceride and LDL-C/HDL-C ratio (Vs HF-HC fructose diet control) were performed using MS Excel.

db/db mice [5] = test: Oral glucose tolerance test in db/db mice (studies I and II); settings: Compound (Ia) 0.1 mg/kg; for AUC Glucose: OGTT day 14, fasting, glucose load 2 gm/kg; for % improvement in AUC glucose vs control: OGTT after 14 days of treatment
Excerpt: 8. […] 8. The treatment was given oral gavages once daily for 14 days.
as §2

db/db mice [6] = test: Oral glucose tolerance test in db/db mice (studies VII and VIII); settings: for AUC Glucose: OGTT day 7, fasting, glucose load 2 gm/kg
Excerpt: In this experiment, 49 db/db mice of 12-16 week were divided into 7 groups and as per their day 0 serum glucose levels. […] Detail treatments and routes of administrations were mentioned in Table no. 27. The treatment was given once daily for 7 days.
The blood was collected by retro-orbital sinus puncture method under light ether anesthesia on day 0 (pretreatment) and on day 6 (one hour after dose administration) for non-fasting glucose analysis and oral glucose tolerance test (OGTT) was performed on day 7 of the treatment in fasting condition. After blood collection serum was separated and analyzed glucose analysis using Spectra max and commercial diagnostic kits. The OGTT procedure followed is as given below—
Oral Glucose Tolerance Test (OGTT): One day before OGTT all animals were kept on overnight fasting and on the day of OGTT, day 7 of the treatment each animal was dosed with a single dose of vehicle/test compounds administered orally and 60-min post dosing blood was collected (0 min) and glucose load (2 gm/kg/10 ml) administered per orally. Blood was then collected at time points corresponding to 30, 60 and 120 min after glucose load administration. Serum was separated and analyzed for glucose using Spectra max and commercial diagnostic kits.
The calculation for antidiabetic activity i.e. effect on serum glucose and improvement in glucose Area Under Curve (AUC) was calculated using the excel sheet and Graph Pad Prism software. The day-0 and day-6 glucose values of vehicle control and treatment were considered for calculating the effect on serum glucose. The effect on glucose AUC was calculated using the OGTT glucose levels at different time points and the improvement in glucose AUC were the reduction in glucose AUC after the treatment during OGTT.

db/db mice [7] = test: Antidiabetic activity in db/db mice (studies I and II): non-fasting serum glucose; settings: Compound (Ia) 0.1 mg/kg; for Serum Glucose (mg/dl) Day 0: Day 0 (pretreatment); for Serum Glucose (mg/dl) Day 12: Day 12, non-fasting; for % Change Vs control: serum glucose day 12 vs vehicle control; for % Change Day 12 vs Day 0: serum glucose
Excerpt: The in-vivo efficacy for antidiabetic activity was done for (I) and (II) individually with db/db mice of 13-14 weeks of age.
8. […] 8. The treatment was given oral gavages once daily for 14 days. […]

[8] = HF-HC fructose diet hamsters, 7 days, Rosuvastatin calcium 0.3 mg/kg
[9] = HF-HC fructose diet hamsters, 13 days, Compound (Ia) 3 mg/kg, Atorvastatin 0.5 mg/kg
[10] = Table 23, LDL/HDL ratio, Day 13, Compound Ia 3 mg/kg, Atorvastatin 0.5 mg/kg
[11] = Table 12, Metformin 150 mg/kg p.o.
[12] = Table 9, female db/db mice, Sitagliptin 3 mg/kg p.o. once daily
[13] = Table 9, Sitagliptin 3 mg/kg p.o. once daily
[14] = Table 11, female db/db mice, Metformin 150 mg/kg p.o. once daily
[15] = Table 11, Metformin 150 mg/kg p.o. once daily

CCO[C@@H](Cc1ccc(OCCn2c(C)ccc2-c2ccc(SC)cc2)cc1)C(=O)O [Compound (Ia), Benzenepropanoic acid, α-ethoxy-4-[2-[2-methyl-5-[4-(methylthio)phenyl]-1H -pyrrol-1-yl]ethoxy]-, magnesium salt]
Serum Glucose (mg/dl) Day 0 (db/db mice [1]; Table 18, Day 0 (pretreatment), female db/db mice, Compound Ia 0.1 mg/kg, Metformin 100 mg/kg p.o. once daily): 375.4 mg/dL
Serum Glucose (mg/dl) Day 12 (db/db mice [1]; Table 18, Day 12, one hour after dose, non-fasting, Compound Ia 0.1 mg/kg, Metformin 100 mg/kg p.o. once daily): 209.0 mg/dL
% Change Vs control (db/db mice [1]; Table 18, serum glucose day 12 vs vehicle control, Compound Ia 0.1 mg/kg, Metformin 100 mg/kg): −34.3%
% Change Day 12 vs Day 0 (db/db mice [1]; Table 18, serum glucose, Compound Ia 0.1 mg/kg, Metformin 100 mg/kg): −43.8%
reduction in serum glucose (db/db mice [1]; female db/db mice, Compound (Ia) 0.1 mg/kg, Metformin 100 mg/kg): 34.3%
AUC Glucose (db/db mice [2]; Table 19, OGTT day 14, fasting, glucose load 2 gm/kg): 69613.3 mg·min/dL
% improvement in AUC glucose vs control (db/db mice [2]): does no show any improvement
% improvement in AUC glucose vs control (db/db mice [2]; listed as Compound Ia): −12.0%
reduction in LDL-C [3, 8]: 9.9%
reduction in LDL-C/HDL-C ratio, atherogenic index [3, 8]: 4.9%
Serum LDL-C (mg/dl) Day 0 ([3]; Table 14, Day 0 (pretreatment), HF-HC fructose diet hamsters, Rosuvastatin calcium 0.3 mg/kg oral once daily 7 days): 114.8 mg/dL
LDL-C % Change vs Day 0 ([3]; Table 14, Day 7, Rosuvastatin calcium 0.3 mg/kg): 9.2%
Serum LDL-C (mg/dl) Day 7 ([3]; Table 14, Day 7, HF-HC fructose diet hamsters, Rosuvastatin calcium 0.3 mg/kg oral once daily 7 days): 123.7 mg/dL
% Change vs HF-HC Fructose Control ([3]; Table 14, LDL-C, Day 7, Rosuvastatin calcium 0.3 mg/kg): −9.9%
Serum HDL-C (mg/dl) Day 0 ([3]; Table 15, Day 0 (pretreatment), HF-HC fructose diet hamsters, Rosuvastatin calcium 0.3 mg/kg oral once daily 7 days): 101.8 mg/dL
HDL-C % Change vs Day 0 ([3]; Table 15, Day 7, Rosuvastatin calcium 0.3 mg/kg): 9.8%
Serum HDL-C (mg/dl) Day 7 ([3]; Table 15, Day 7, HF-HC fructose diet hamsters, Rosuvastatin calcium 0.3 mg/kg oral once daily 7 days): 111.5 mg/dL
Serum LDL-C/HDL-C Ratio Day 0 ([3]; Table 16, Day 0 (pretreatment), HF-HC fructose diet hamsters, Rosuvastatin calcium 0.3 mg/kg): 1.13
LDL/HDL % Change Vs Day 0 ([3]; Table 16, Day 7, Rosuvastatin calcium 0.3 mg/kg): −0.3%
Serum LDL-C/HDL-C Ratio Day 7 ([3]; Table 16, Day 7, HF-HC fructose diet hamsters, Rosuvastatin calcium 0.3 mg/kg): 1.09
% Change vs HF-HC Fructose Control ([3]; Table 16, LDL-C/HDL-C ratio, Day 7, Rosuvastatin calcium 0.3 mg/kg): −4.9%
reduction in LDL-C [4, 9]: 14.8%
reduction in LDL-C/HDL-C ratio, atherogenic index [4, 9]: does not showed any reduction
reduction in triglyceride [4, 9]: 65.2%
Serum LDL-C (mg/dl) Day 0 ([4]; Table 21, Day 0 (pretreatment), HF-HC fructose diet hamsters, Compound Ia 3 mg/kg, Atorvastatin 0.5 mg/kg oral once daily 13 days): 75.1 mg/dL
LDL-C % Change vs Day 0 ([4]; Table 21, Day 13, Compound Ia 3 mg/kg, Atorvastatin 0.5 mg/kg): 0.1%
Serum LDL-C (mg/dl) Day 13 ([4]; Table 21, Day 13, HF-HC fructose diet hamsters, Compound Ia 3 mg/kg, Atorvastatin 0.5 mg/kg oral once daily 13 days): 73.1 mg/dL
% Change vs HF-HC Fructose Control ([4]; Table 21, LDL-C, Day 13, Compound Ia 3 mg/kg, Atorvastatin 0.5 mg/kg): −14.8%
Serum triglyceride (mg/dl) Day 0 ([4]; Table 22, Day 0 (pretreatment), HF-HC fructose diet hamsters, Compound Ia 3 mg/kg, Atorvastatin 0.5 mg/kg oral once daily 13 days): 418.4 mg/dL
TG % Change vs Day 0 ([4]; Table 22, Day 13, Compound Ia 3 mg/kg, Atorvastatin 0.5 mg/kg): −64.0%
Serum triglyceride (mg/dl) Day 13 ([4]; Table 22, Day 13, HF-HC fructose diet hamsters, Compound Ia 3 mg/kg, Atorvastatin 0.5 mg/kg oral once daily 13 days): 149.5 mg/dL
% Change vs HF-HC Fructose Control ([4]; Table 22, triglyceride, Day 13, Compound Ia 3 mg/kg, Atorvastatin 0.5 mg/kg): −65.2%
LDL/HDL RATIO Day 0 ([4]; Table 23, Day 0 (pretreatment), HF-HC fructose diet hamsters, Compound Ia 3 mg/kg, Atorvastatin 0.5 mg/kg): 0.79
LDL/HDL RATIO Day 13 ([4]; Table 23, Day 13, HF-HC fructose diet hamsters, Compound Ia 3 mg/kg, Atorvastatin 0.5 mg/kg): 0.82
% Change vs HF-HC Fructose Control [4, 10]: 8.5%
Change vs Day 0 [4, 10]: 6.4
AUC Glucose (db/db mice [5]; Table 10, Sitagliptin 3 mg/kg p.o.): 51757.3 ± 3366.3 mg·min/dL
% improvement in AUC glucose vs control (db/db mice [5]; Table 10 and text, Sitagliptin 3 mg/kg p.o.): 9% and 9.0 ± 5.9%
% improvement in AUC glucose vs control (db/db mice [5]; [11]): 9%
AUC Glucose (db/db mice [5]; [11]): 51757.3 mg·min/dL
AUC Glucose (db/db mice [6]; Table 29, Compound Ia 0.1 mg/kg p.o., Exenatide 0.1 μg/kg i.p.): 46452.6 mg·min/dL
% improvement in AUC glucose vs control (db/db mice [6]; Table 29 and text, OGTT day 7, Compound Ia 0.1 mg/kg p.o., Exenatide 0.1 μg/kg i.p.): 23.7%
AUC Glucose (db/db mice [6]; Table 31, Compound Ia 0.1 mg/kg, Glimepiride 2 mg/kg p.o.): 46452.6 mg·min/dL
% improvement in AUC glucose vs control (db/db mice [6]; Table 31 and text, OGTT after 7 days of treatment, Compound Ia 0.1 mg/kg, Glimepiride 2 mg/kg p.o.): 23.7%
Serum Glucose (mg/dl) Day 0 (db/db mice [7]; [12]): 407.8 ± 28.9 mg/dL
Serum Glucose (mg/dl) Day 12 (db/db mice [7]; [12]): 276.9 ± 39.4 mg/dL
% Change Vs control (db/db mice [7]; [13]): −32.8 ± 6.0%
% Change Day 12 vs Day 0 (db/db mice [7]; [13]): −33.0 ± 5.9%
Serum Glucose (mg/dl) Day 0 (db/db mice [7]; [14]): 407.8 mg/dL
Serum Glucose (mg/dl) Day 12 (db/db mice [7]; [14]): 276.9 mg/dL
% Change Vs control (db/db mice [7]; [15]): −32.8%
% Change Day 12 vs Day 0 (db/db mice [7]; [15]): −33.0%
reduction in serum glucose (db/db mice [7]; female db/db mice, Sitagliptin 3 mg/kg, Metformin 150 mg/kg): 32.8%

— US9957230B2, “Synergistic compositions” (Cadila Healthcare Limited, priority 2013, dated 2018)
